Entries after “also recorded” stand apart in the source; their conditions may differ. Like-named read-outs stand apart in the source and are kept apart here.
Columns and labels:
[1] = target: T1, full-length human ABHD2 (ABHD2^FL) (Homo sapiens, UniProt P08910); assay: ABHD2^FL enzymatic activity assay with 7-HCA substrate; format: biochemical
T1 construct: TEV site-eGFP-8xHis (C, cleaved yes); made in house; host or cells: SF9 insect cells (baculovirus)
T1 sequence (P08910 1-425): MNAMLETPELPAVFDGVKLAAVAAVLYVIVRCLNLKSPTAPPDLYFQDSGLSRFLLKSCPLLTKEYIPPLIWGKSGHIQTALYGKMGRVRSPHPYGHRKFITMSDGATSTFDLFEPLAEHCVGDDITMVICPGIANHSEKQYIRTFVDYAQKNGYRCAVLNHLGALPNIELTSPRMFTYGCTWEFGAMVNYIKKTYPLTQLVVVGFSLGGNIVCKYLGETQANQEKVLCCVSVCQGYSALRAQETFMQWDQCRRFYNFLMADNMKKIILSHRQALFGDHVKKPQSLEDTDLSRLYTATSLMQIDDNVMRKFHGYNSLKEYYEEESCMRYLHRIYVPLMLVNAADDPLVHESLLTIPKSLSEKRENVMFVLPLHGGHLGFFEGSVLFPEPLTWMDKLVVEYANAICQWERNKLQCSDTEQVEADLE

ABHD2^L33–E425 [2] = target: T2, ABHD2^L33–E425 (Homo sapiens, UniProt P08910); assay: ABHD2^L33-E425 fluorometric enzymatic activity assay with 7-HCA substrate; format: biochemical; conditions: for IC50: 10 nM enzyme, 10 µM 7-HCA, read-out: IC50 for ABHD2^L33-425, fluorometric assay using 7-HCA
T2 construct: expression for ABHD2 amino acids L33–E425, in which a predicted transmembrane domain (amino acids 1–32) is removed; His6-FLAG (N); made in house; host or cells: E. coli BL21(DE3)-R3-pRARE2
T2 sequence (P08910 33-425): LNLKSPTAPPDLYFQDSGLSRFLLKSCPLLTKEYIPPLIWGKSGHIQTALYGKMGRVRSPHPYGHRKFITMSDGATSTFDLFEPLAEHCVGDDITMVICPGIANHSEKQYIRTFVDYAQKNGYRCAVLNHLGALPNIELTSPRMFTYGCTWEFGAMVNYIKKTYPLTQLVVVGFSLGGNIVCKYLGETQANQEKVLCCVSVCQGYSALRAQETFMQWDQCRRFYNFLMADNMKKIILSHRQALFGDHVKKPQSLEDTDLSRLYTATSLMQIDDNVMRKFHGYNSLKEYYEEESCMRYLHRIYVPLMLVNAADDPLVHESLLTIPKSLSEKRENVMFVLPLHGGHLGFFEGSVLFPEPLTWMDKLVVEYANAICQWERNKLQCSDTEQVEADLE

ABHD2^L33–E425 [3] = target: T2, ABHD2^L33–E425; assay: Differential scanning fluorimetry (DSF) with purified ABHD2^L33–E425; format: binding; conditions: for effect on heat-induced denaturation of ABHD2^L33–E425 (DSF binding): 40 µM steroid, 30 min pre-incubation; for ΔTm shift for ABHD2^L33-425 determined by DSF: purified protein
human sperm [4] = assay: Sperm hyperactivation assay (CASA); format: cell-based; conditions: 10 µM compound, 30 min
Procedure: Sperm hyperactivation was assessed in human sperm purified by density gradient centrifugation. Semen samples (n = 7) were allowed to liquefy for 15–30 min at 37°C, and up to 2 ml of liquified semen was layered onto a two-step GM501 gradient system (45%/90%; Gynemed; Sierksdorf, Germany) pre-equilibrated at 37°C. Gradients were centrifuged for 20 min at 400 × g (no break). The 90% pellet was collected, washed in SpermActive medium (Gynemed; composition per manufacturer: NaCl, KCl, MgSO4.7H2O, KH2PO4, 1.77 mM CaCl2.2H2O, D(+)-glucose anhydrous, sodium pyruvate, sodium lactate, EDTA, alanyl-glutamine, essential and non-essential amino acids, 25.71 mM NaHCO3, 15 mM HEPES, 5 g/l human serum albumin, 10 mg/l gentamicin, and phenol red), and incubated for at least 2 h at 37°C, 5% CO2.
For compound testing, sperm suspensions with 7.5 × 10^6 sperm/ml in SpermActive were treated with either DMSO (vehicle) or 10 µM test compound. For basal and induced hyperactivation conditions, DMSO or progesterone (3 µM), respectively, was added. Samples were incubated for 30 min at 37°C, 5% CO2, before motility analysis.
Motility was analyzed using a CASA system (CEROSII^TM Animal Motility, software version 1.16; Hamilton Thorne, Beverly, MA, USA), mounted on an Axiolab 5 microscope (Zeiss, Germany), equipped with a TPi-SX Thermal Plate (Tokai Hit; Shizuoka-ken, Japan) and a JAI CM-040-GE CCD camera (JAI; Tokyo, Japan). Leja slides (20 µm chamber depth; Leja Products B.V., Nieuw-Vennep, The Netherlands) were pre-warmed to 37°C, cleaned with lens paper, and loaded by capillary action with 6 µl sperm suspension; capillary correction was set to 1.3. Sperm tracks were recorded at 37°C using a 10× negative-phase objective, acquiring 60 frames at 60 Hz with 4 ms exposure and gain set to 600. For each sample and condition, 300–500 motile sperm from at least 10 non-overlapping fields were analyzed. Hyperactive sperm were identified using the SORT function with the following Boolean argument: VCL > 150 µm/s and LIN < 50% and ALH > 7 µm. For each sample and condition, the percentage of hyperactive sperm was normalized to the percentage of motile sperm, and the mean of two technical duplicates was reported.
Statistical analysis was performed using GraphPad Prism 10 for Windows (version 10.6.1). Data normality was assessed using Shapiro–Wilk test. Differences between basal and induced hyperactivation were evaluated using a paired t-test, with effective pairing confirmed across all comparisons. P < 0.05 was considered statistically significant.

human sperm [5] = assay: Sperm intracellular Ca2+ measurements (Fluo-4); format: cell-based
Procedure: Measurements of the changes in sperm intracellular Ca^2+ concentration ([Ca^2+]i) were performed on motile human sperm purified by swim-up. Semen samples were allowed to liquefy for 15–60 min at 37°C, and 0.5–1 ml liquified semen was layered beneath 4 ml human tubal fluid medium (HTF; 97.8 mM NaCl, 4.69 mM KCl, 0.2 mM MgSO4, 0.37 mM KH2PO4, 2.04 mM CaCl2, 2.78 mM glucose, 0.33 mM sodium pyruvate, 21.4 mM lactic acid, 4 mM NaHCO3, and 21 mM HEPES pH 7.35 adjusted with NaOH) in 50 ml conical tubes. Motile sperm were allowed to swim up into the HTF for 60–90 min at 37°C, collected, washed twice (700 × g, 20 min, 37°C), and resuspended in HTF containing 3 mg/ml HSA at a density of 1 × 10^7 sperm/ml. Changes of [Ca^2+]i in motile human sperm were measured as previously described ([Rennhack et al., 2018]), using a fluorescence plate-reader assay (FLUOstar Omega, BMG LABTECH) with 384-well plates. Swim-up-purified sperm were loaded with Fluo4-AM (5 μM, Thermo Fisher Scientific, Waltham, MA, USA) and Pluronic F-127 (0.05% w/v) for 20 min at 37°C. Excess dye was removed by centrifugation at 700 × g for 5 min, supernatant removal, and resuspension to 5 × 10^6 sperm/ml in HTF.
For recordings, wells of a 384-well plate were filled with 50 μl of the dye-loaded sperm suspension. Fluorescence was excited at 480 nm, and emission was recorded at 520 nm using a plate reader (Fluostar Omega, BMG Labtech). After establishing a baseline for at least 60 s, 25 µl test compound solutions were added and the fluorescence response recorded. After 4 min, 7.5 µl progesterone was added to reach a final concentration of 3 µM, and ensuing changes in fluorescence were recorded. For the analysis of compound-evoked Ca^2+ signal, basal fluorescence (F0) was determined prior to compound addition. For the determination of inhibitory effects of compounds on progesterone-evoked Ca^2+ signals, basal fluorescence (F0) was determined before progesterone addition. The CatSper inhibitor TS150 ([Schierling et al., 2023]) was used as a control. Each compound was tested in technical duplicates across ≥3 biological replicates, using sperm from at least two donors, and performed on at least two separate days.
Data analysis and graphical representation were performed with GraphPad Prism software version 10.6.1 (San Diego, CA, USA). Changes in Fluo-4 fluorescence are depicted as ΔF/F0 (%), i.e. the change in fluorescence (ΔF) relative to the mean basal fluorescence (F0) before application of buffer or compounds/ligands, to correct for intra- and inter-experimental variations in basal fluorescence among individual wells or to correct for compound-evoked changes in fluorescence. Signal amplitudes evoked in the presence of compounds were normalized to the maximal signal amplitude evoked by 3 µM progesterone in the absence of the compound (set to 1) to ease comparisons between experiments.

[6] = 7-HCA and RB substrates (Suppl. Fig. S4A,B), weak effects at ≥5 µM
[7] = 5 µM steroid or triterpenoid, 300 nM 7-HCA

C[C@]12CC[C@H]3[C@@H](CCC4=CC(=O)CC[C@@]43C)[C@@H]1CC[C@@H]2O [testosterone]
effect on enzymatic activity of purified ABHD2^FL [1]: did not alter
effect on enzymatic activity of purified ABHD2^L33–E425 (ABHD2^L33–E425 [2]): did not alter
effect on heat-induced denaturation of ABHD2^L33–E425 (DSF binding) (ABHD2^L33–E425 [3]): did not affect

O=C(N1CCCCC1)N1CCCC[C@@H]1Cc1ccccc1 [(R)-1]
effect on progesterone-induced hyperactivation (human sperm [4]; 3 µM progesterone): not affected
effect on basal hyperactivation (human sperm [4]): No statistically significant differences; also recorded: did not affect
compound-evoked changes in [Ca2+]i (human sperm [5]; 10 µM compound): only minuscule changes
effect on progesterone-induced Ca2+ signal (amplitude and waveform) (human sperm [5]; compounds 10 µM, TS150 60 µM, progesterone 3 µM): similar
IC50 (ABHD2^L33–E425 [2]): 1200 nM
ΔTm shift for ABHD2^L33-425 determined by DSF (ABHD2^L33–E425 [3]): 3.0 °C

C[C@]12CCC(=O)C=C1CC[C@@H]1[C@@H]2[C@@H](O)C[C@@]2(C)[C@H]1CC[C@]2(O)C(=O)CO [hydrocortisone]
effect on enzymatic activity of purified ABHD2^FL [1, 6]: did not alter
effect on enzymatic activity of purified ABHD2^L33–E425 (ABHD2^L33–E425 [2]; [7]): did not alter
effect on heat-induced denaturation of ABHD2^L33–E425 (DSF binding) (ABHD2^L33–E425 [3]): did not affect

O=C(N1CCCCC1)N1CCCC[C@H]1Cc1ccccc1 [(S)-1]
IC50 (ABHD2^L33–E425 [2]): 3000 nM
ΔTm shift for ABHD2^L33-425 determined by DSF (ABHD2^L33–E425 [3]): 2.5 °C

CC(C)CCC[C@@H](C)[C@H]1CC[C@H]2[C@@H]3CC=C4C[C@@H](O)CC[C@]4(C)[C@H]3CC[C@]12C [cholesterol]
effect on enzymatic activity of purified ABHD2^FL [1, 6]: did not alter
effect on enzymatic activity of purified ABHD2^L33–E425 (ABHD2^L33–E425 [2]; [7]): did not alter
effect on heat-induced denaturation of ABHD2^L33–E425 (DSF binding) (ABHD2^L33–E425 [3]): did not affect

O=C(N1CCCCC1)N1CCCC[C@H]1c1ccccc1 [(S)-2]
IC50 ([1]; Supplementary Table S2, read-out: IC50 measured in ABHD2^FL in the 7-HCA Assay): 5900 nM
IC50 (ABHD2^L33–E425 [2]): 2100 nM
ΔTm shift for ABHD2^L33-425 determined by DSF (ABHD2^L33–E425 [3]): 2.7 °C

17α-hydroxyprogesterone [reference compound]
effect on heat-induced denaturation of ABHD2^L33–E425 (DSF binding) (ABHD2^L33–E425 [3]): no binding was observed

Source: PMC13429874, “ABHD2 activity is not required for the non-genomic action of progesterone on human sperm” (Human Reproduction (Oxford, England), 2026)
